Publication PMC10893631, “Receptor-based pharmacophore modeling, molecular docking, synthesis and biological evaluation of novel VEGFR-2, FGFR-1, and BRAF multi-kinase inhibitors” (BMC Chemistry, 2024)

How the values were obtained:
[1] = target: T1, VEGFR-2 (Homo sapiens, UniProt P35968); experiment: VEGFR-2 kinase assay kit (BPS), Kinase-Glo Max luminescence; assay type: biochemical; details: VEGFR-2, single dose 10 µM, duplicate, mean ± SD
T1 construct: purchased BPS Biosciences 40325
Description: 2. Biochemical kinase assay procedure
The inhibitory activity against different kinases was determined using kinase kits […]
from BPS Biosciences and kinase-Glo Max luminescence kinase assay kit (Promega).
The assay was carried out according to the protocol provided by the manufacturer. A stock solution of the synthesized derivatives in 100% DMSO was prepared. Subsequently, the compounds were diluted to 10% DMSO.
A master mixture was prepared according to the number of wells. For VEGFR-2 and FGFR-1 biochemical assays each well include 6 μl of 5x Kinase Buffer 1 + 1 μl of 500 μM ATP + 1 μl of PTK Substrate (Poly-Glu,Tyr 4:1) (10 mg/ml) + 17 μl of distilled water. For BRAF assay each well include 6 μl of 5x Kinase Buffer 1 + 1 μl of ATP (500 μM) + 10 μl of 5X Raf substrate + 8 μl of distilled water. 1x Kinase buffer 1 was prepared by mixing 600 μl of 5x Kinase Buffer 1 with 2400 μl water to give 3 mL. Kinases were thawed on ice and were diluted with 1x Kinase Buffer 1.
To start the biochemical reaction, 25 µL of the master mixture was added to each well in 96 well plate. 5 µL of 10% DMSO was added to positive control wells and blank wells. 5 µL of diluted inhibitor was added to each well labelled with the test inhibitor so that the final concentration of DMSO is 1% in all reactions. Then 20 µL of (1 ng / μl) in case of VEGFR-2 and FGFR-1 or (2.5 ng/μl) in case of BRAF in 1x kinase buffer was added to positive control wells and wells labelled with the inhibitor, while 20 µL 1x kinase buffer 1 was added to the […]
The plate was incubated at 30 °C for 45 min. Subsequently, 50 μl of Kinase-Glo Max luminescence reagent was added to each well and the plate was covered with aluminum foil and incubated at room temperature 15 min. Finally, the luminescence was recorded using multimode microplate reader. Kinase activity assays were performed in duplicate at each […]
The luminescence data were analyzed as follows. The difference between luminescence intensities in the absence of kinase (Lut) and in the presence of kinase (Luc) was defined as 100 % activity (Lut – Luc). Using luminescence signal (Lu) in the presence of the compound, % activity was calculated as: % activity = {(Lut - Lu)/(Lut - Luc)}×100%. The […]
concentration of the test compounds required to reduce the kinase activity by 50% was determined from dose-response curves and recorded as their IC50. […]

[2] = tested on: OVCAR-4; experiment: NCI SRB growth inhibition (single dose 10 µM / five-dose); assay type: cell-based, human; details: for inhibition at 10 µM: read-out: GI%; for GI50: OVCAR-4, Ovarian cancer, five-dose
Description: (§1) Screening of cytotoxic activity against a panel of sixty human tumor cell lines The selected compounds by NCI were evaluated for their anticancer activity in a two- stage process. […] Then, the output from the single dose screen is reported as a mean graph. […] Assay protocol. […] For a typical screening experiment, cells are inoculated into 96 well microtiter plates in 100 µL at plating densities ranging from 5000 to 40,000 cells/well depending on the doubling time of individual cell lines. […] After 24 h, two plates of each cell line are fixed in situ with TCA, to represent a measurement of the cell population for each cell line at the time of drug addition (Tz). The experimental drugs are solubilized in dimethyl sulfoxide at 400-fold the desired final maximum test concentration and stored frozen prior to use. At the time of drug addition, an aliquot of frozen concentrate is thawed and diluted to twice the desired final maximum test concentration with complete medium containing 50 µg/mL gentamicin. Additional four, 10-fold or ½ log serial dilutions are made to provide a total of five drug concentrations plus control. Aliquots of 100 mL of these different drug dilutions are added to the appropriate microtiter wells already containing […] of medium, resulting in the required final drug concentrations. […] For adherent cells, the assay is terminated by the addition of cold TCA. […] The supernatant is discarded, and the plates are washed five times with tap water and air dried. Sulforhodamine B (SRB) solution ([…]) at 0.4% (w/v) in 1% acetic acid is added to each well, and plates are incubated for 10 min at room temperature. After staining, unbound dye is removed by washing five times with 1% acetic acid and the plates are air dried. […] Using the seven absorbance measurements [time zero, (Tz), control growth, (C), and test growth in the presence of drug at the five concentration levels (Ti)], the percentage growth is calculated at each of the drug concentrations levels. Percentage growth inhibition is calculated as: [(Ti Tz)/(C–Tz)] x 100 for concentrations for which Ti>/=Tz and [(Ti-Tz)/Tz] x 100 for concentrations for which Ti < Tz. Three dose response parameters are calculated for each experimental agent. […] The drug concentration resulting in total growth inhibition (TGI) is calculated from Ti = Tz. […] Values are calculated for each of these three parameters if the level of activity is reached; however, if the effect is not reached or is exceeded, the value for that parameter is expressed as greater or less than the maximum or minimum concentration tested.

[3] = tested on: EKVX; experiment: as above; assay type: cell-based, human; details: for inhibition at 10 µM: read-out: GI%; for GI50: EKVX, Non-small cell lung cancer, five-dose
Description: as §1

[4] = tested on: M14; experiment: as above; assay type: cell-based, human; details: for inhibition at 10 µM: read-out: GI%; for GI50: M14, Melanoma, five-dose
Description: as §1

[5] = tested on: K-562; experiment: as above; assay type: cell-based, human; details: for inhibition at 10 µM: read-out: GI%; for GI50: K-562, Leukemia, five-dose
Description: as §1

[6] = tested on: SNB-19; experiment: as above; assay type: cell-based, human; details: for inhibition at 10 µM: read-out: GI%; for GI50: SNB-19, CNS cancer, five-dose
Description: as §1

[7] = tested on: ACHN; experiment: as above; assay type: cell-based, human; details: for inhibition at 10 µM: read-out: GI%; for GI50: ACHN, Renal cancer, five-dose
Description: as §1

[8] = tested on: NCI-H322M; experiment: as above; assay type: cell-based, human; details: for inhibition at 10 µM: read-out: GI%; for GI50: NCI-H322M, Non-small cell lung cancer, five-dose
Description: as §1

[9] = tested on: DU-145; experiment: as above; assay type: cell-based, human; details: for inhibition at 10 µM: read-out: GI%; for GI50: DU-145, Prostate cancer, five-dose
Description: as §1

[10] = tested on: LOX IMVI; experiment: as above; assay type: cell-based, human; details: for inhibition at 10 µM: read-out: GI%; for GI50: LOX IMVI, Melanoma, five-dose
Description: as §1

[11] = tested on: T-47D; experiment: as above; assay type: cell-based, human; details: for inhibition at 10 µM: read-out: GI%; for GI50: T-47D, Breast cancer, five-dose
Description: as §1

[12] = tested on: RPMI-8226; experiment: as above; assay type: cell-based, human; details: for inhibition at 10 µM: read-out: GI%; for GI50: RPMI-8226, Leukemia, five-dose
Description: as §1

[13] = tested on: SK-MEL-2; experiment: as above; assay type: cell-based, human; details: for GI50: SK-MEL-2, Melanoma, five-dose
Description: as §1

[14] = Homo sapiens, OVCAR-4 (Ovarian cancer), 10 µM
[15] = Homo sapiens, EKVX (Non-small cell lung cancer), 10 µM
[16] = Homo sapiens, M14 (Melanoma), 10 µM
[17] = Homo sapiens, K562, K-562 (Leukemia), 10 µM
[18] = Homo sapiens, SNB-19 (CNS cancer), 10 µM
[19] = Homo sapiens, ACHN (Renal cancer), 10 µM
[20] = Homo sapiens, NCI-H322M (Non-small cell lung cancer), 10 µM
[21] = Homo sapiens, DU-145 (Prostate cancer), 10 µM
[22] = Homo sapiens, LOX IMVI (Melanoma), 10 µM
[23] = Homo sapiens, T47D, T-47D (Breast cancer), 10 µM
[24] = Homo sapiens, RPMI-8226 (Leukemia), 10 µM

T1 sequence (P35968 20-1356): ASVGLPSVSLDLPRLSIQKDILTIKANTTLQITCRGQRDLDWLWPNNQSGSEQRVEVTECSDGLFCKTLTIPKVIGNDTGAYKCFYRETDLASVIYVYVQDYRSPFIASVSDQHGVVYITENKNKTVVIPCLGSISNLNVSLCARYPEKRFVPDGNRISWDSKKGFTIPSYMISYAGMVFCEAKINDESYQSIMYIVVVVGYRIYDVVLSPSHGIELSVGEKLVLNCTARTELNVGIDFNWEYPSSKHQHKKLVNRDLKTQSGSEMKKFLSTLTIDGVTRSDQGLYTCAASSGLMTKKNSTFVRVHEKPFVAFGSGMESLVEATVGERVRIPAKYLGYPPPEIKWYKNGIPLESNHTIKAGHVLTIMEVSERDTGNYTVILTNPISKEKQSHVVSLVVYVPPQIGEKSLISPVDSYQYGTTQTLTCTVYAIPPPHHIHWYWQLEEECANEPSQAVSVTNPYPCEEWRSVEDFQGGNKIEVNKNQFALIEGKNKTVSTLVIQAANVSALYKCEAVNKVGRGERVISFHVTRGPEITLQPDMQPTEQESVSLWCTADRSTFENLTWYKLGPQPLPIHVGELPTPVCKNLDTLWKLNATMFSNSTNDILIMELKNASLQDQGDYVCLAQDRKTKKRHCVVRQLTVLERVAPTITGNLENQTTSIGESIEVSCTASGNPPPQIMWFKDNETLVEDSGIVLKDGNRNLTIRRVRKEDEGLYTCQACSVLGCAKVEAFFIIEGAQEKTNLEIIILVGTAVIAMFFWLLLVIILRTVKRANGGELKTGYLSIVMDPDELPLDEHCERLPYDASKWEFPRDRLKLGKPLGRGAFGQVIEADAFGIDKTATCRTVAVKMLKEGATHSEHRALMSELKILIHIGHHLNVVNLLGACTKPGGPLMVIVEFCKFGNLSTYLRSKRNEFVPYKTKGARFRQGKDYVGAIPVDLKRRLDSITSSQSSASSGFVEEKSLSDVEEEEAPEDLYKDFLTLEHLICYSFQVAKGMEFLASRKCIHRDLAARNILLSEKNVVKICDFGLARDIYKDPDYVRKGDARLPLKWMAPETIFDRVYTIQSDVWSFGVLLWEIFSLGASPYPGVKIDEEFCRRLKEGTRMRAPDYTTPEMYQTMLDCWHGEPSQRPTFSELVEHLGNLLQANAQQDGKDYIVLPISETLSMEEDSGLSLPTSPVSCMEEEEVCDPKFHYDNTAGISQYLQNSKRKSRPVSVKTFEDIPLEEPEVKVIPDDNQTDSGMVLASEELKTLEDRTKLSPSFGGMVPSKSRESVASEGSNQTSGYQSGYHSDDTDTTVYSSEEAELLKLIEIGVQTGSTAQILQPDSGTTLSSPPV

## COc1cccc(C=NNC(=O)c2ccc3[nH]c(-c4ccc(Cl)cc4)nc3c2)c1O [8r, 2-(4-Chlorophenyl)-N'-(2-hydroxy-3-methoxybenzylidene)-1H-benzo[d]imidazole-5-carbohydrazide]
[1]
  inhibition at 10 µM: 25.7 ± 1.87%
[2]; [14]
  inhibition at 10 µM: > 100%
[2]; Homo sapiens
  GI50: 1410 nM
[3]; [15]
  inhibition at 10 µM: > 100%
[3]; Homo sapiens
  GI50: 4560 nM
[4]; [16]
  inhibition at 10 µM: > 100%
[4]; Homo sapiens
  GI50: 2070 nM
[5]; [17]
  inhibition at 10 µM: > 100%
[5]; Homo sapiens, K562
  GI50: 490 nM
[6]; [18]
  inhibition at 10 µM: > 100%
[6]; Homo sapiens
  GI50: 1310 nM
[7]; [19]
  inhibition at 10 µM: > 100%
[7]; Homo sapiens
  GI50: 2920 nM
[8]; [20]
  inhibition at 10 µM: > 100%
[8]; Homo sapiens
  GI50: 1590 nM
[9]; [21]
  inhibition at 10 µM: > 100%
[9]; Homo sapiens
  GI50: 1990 nM
[10]; [22]
  inhibition at 10 µM: > 100%
[10]; Homo sapiens
  GI50: 1180 nM
[11]; [23]
  inhibition at 10 µM: > 100%
[11]; Homo sapiens, T47D
  GI50: 600 nM
[12]; [24]
  inhibition at 10 µM: > 100%
[12]; Homo sapiens
  GI50: 2220 nM
[13]; Homo sapiens, SK-MEL-2 (Melanoma), 10 µM, read-out: GI%
  inhibition at 10 µM: > 100%

## COc1ccc(-c2nc3cc(C(=O)NN=Cc4ccccc4O)ccc3[nH]2)cc1 [8h, N'-(2-Hydroxybenzylidene)-2-(4-methoxyphenyl)-1H-benzo[d]imidazole-5-carbohydrazide]
[1]
  inhibition at 10 µM: 62.9 ± 3.89%
[2]; [14]
  inhibition at 10 µM: > 100%
[2]; Homo sapiens
  GI50: 2240 nM
[3]; [15]
  inhibition at 10 µM: 92.2%
[3]; Homo sapiens
  GI50: 3240 nM
[4]; [16]
  inhibition at 10 µM: > 100%
[4]; Homo sapiens
  GI50: 3650 nM
[5]; [17]
  inhibition at 10 µM: 99.5%
[5]; Homo sapiens, K562
  GI50: 1360 nM
[6]; [18]
  inhibition at 10 µM: > 100%
[6]; Homo sapiens
  GI50: 1760 nM
[7]; [19]
  inhibition at 10 µM: > 100%
[7]; Homo sapiens
  GI50: 3020 nM
[8]; [20]
  inhibition at 10 µM: 96.7%
[8]; Homo sapiens
  GI50: 4230 nM
[9]; [21]
  inhibition at 10 µM: > 100%
[9]; Homo sapiens
  GI50: 2330 nM
[10]; [22]
  inhibition at 10 µM: 98.7%
[10]; Homo sapiens
  GI50: 2230 nM
[11]; [23]
  inhibition at 10 µM: > 100%
[11]; Homo sapiens, T47D
  GI50: 2600 nM
[12]; [24]
  inhibition at 10 µM: 96.7%
[12]; Homo sapiens
  GI50: 1390 nM
[13]; Homo sapiens
  GI50: 5170 nM

## N'-(2-Hydroxybenzylidene)-2-phenyl-1H-benzo[d]imidazole-5-carbohydrazide [8a]
[1]
  % Inhibition: 43.03 ± 2.32%
[2]; OVCAR-4 (Ovarian cancer), 10 µM
  GI%: 94.42%
[2]
  GI50: 2240 nM
[3]; EKVX (Non-small cell lung cancer), 10 µM
  GI%: 96.49%
[3]
  GI50: 1850 nM
[4]; M14 (Melanoma), 10 µM
  GI%: 81.80%
[4]
  GI50: 920 nM
[5]; K-562 (Leukemia), 10 µM
  GI%: 78.58%
[5]
  GI50: 3390 nM
[6]; SNB-19 (CNS cancer), 10 µM
  GI%: 95.02%
[6]
  GI50: 4160 nM
[7]; ACHN (Renal cancer), 10 µM
  GI%: L (GI% > 100)
[7]
  GI50: 3280 nM
[8]; NCI-H322M (Non-small cell lung cancer), 10 µM
  GI%: 94.14%
[8]
  GI50: 2130 nM
[9]; DU-145 (Prostate cancer), 10 µM
  GI%: L (GI% > 100)
[9]
  GI50: 2750 nM
[10]; LOX IMVI (Melanoma), 10 µM
  GI%: 88.38%
[10]
  GI50: 2000 nM
[11]; T-47D (Breast cancer), 10 µM
  GI%: 93.65%
[11]
  GI50: 3380 nM
[12]; RPMI-8226 (Leukemia), 10 µM
  GI%: 88.59%
[12]
  GI50: 1190 nM
[13]; SK-MEL-2 (Melanoma), 10 µM
  GI%: 60.21%
[13]
  GI50: 3190 nM
